Source: patent US7935670B2, “Hepatitis C virus inhibitors” (Bristol-Myers Squibb Company, priority 2006, dated 2011)
pIC50: −log10 of the molar value. Where two headings read alike, the source gives them in different places.

Target: T1, HCV NS3/4A protease complex, BMS strain (UniProt P27958, species not given/STRAIN_BMS)
T1 construct: given for H77 and J4L6S, not expressly for BMS; fused on or other part: three-lysine solubilising tail at the end of NS4A (given for the H77 and J4L6S constructs)
T1 sequence (P27958 1027-1657, change not shown, one chain of several): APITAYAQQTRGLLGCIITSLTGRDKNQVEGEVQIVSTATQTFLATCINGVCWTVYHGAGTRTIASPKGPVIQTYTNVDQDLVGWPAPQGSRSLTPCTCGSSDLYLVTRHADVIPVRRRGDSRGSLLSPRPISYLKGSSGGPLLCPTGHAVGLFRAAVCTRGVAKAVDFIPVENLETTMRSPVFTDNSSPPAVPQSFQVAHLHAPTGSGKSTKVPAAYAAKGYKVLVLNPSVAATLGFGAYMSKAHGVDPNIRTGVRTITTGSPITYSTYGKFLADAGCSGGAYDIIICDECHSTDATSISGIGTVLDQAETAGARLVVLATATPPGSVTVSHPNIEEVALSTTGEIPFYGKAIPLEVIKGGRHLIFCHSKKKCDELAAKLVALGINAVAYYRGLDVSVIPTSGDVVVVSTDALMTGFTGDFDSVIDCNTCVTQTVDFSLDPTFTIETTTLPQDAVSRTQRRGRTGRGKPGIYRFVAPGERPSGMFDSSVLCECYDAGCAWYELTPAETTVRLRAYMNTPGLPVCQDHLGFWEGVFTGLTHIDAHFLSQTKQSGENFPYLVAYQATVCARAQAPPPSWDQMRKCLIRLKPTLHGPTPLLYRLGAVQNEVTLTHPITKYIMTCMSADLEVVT
Assay: FRET peptide assay to monitor HCV NS3/4A proteolytic activity (BMS strain)
Assay type: biochemical, HCV genotype 1a
Text: HCV NS3 protease complexes, derived from the BMS strain, H77 strain or J4L6S strain, were generated, as described below. These purified recombinant proteins were generated for use in a homogeneous assay (see below) to provide an indication of how effective compounds of the present disclosure would be in inhibiting HCV NS3 proteolytic activity.
Serum from an HCV-infected patient was obtained from Dr. T. Wright, San Francisco Hospital. An engineered full-length cDNA (compliment deoxyribonucleic acid) template of the HCV genome (BMS strain) was constructed from DNA fragments obtained by reverse transcription-PCR(RT-PCR) of serum RNA (ribonucleic acid) and using primers selected on the basis of homology between other genotype 1a strains. From the determination of the entire genome sequence, a genotype 1a was assigned to the HCV isolate according to the classification of Simmonds et al. (See P Simmonds, K A Rose, S Graham, S W Chan, F McOmish, B C Dow, E A Follett, P L Yap and H Marsden, J. Clin. Microbiol., 31(6), 1493-1503 (1993)). […] The infectious clones, H77 (1a genotype) and J4L6S (1b genotype) were obtained from R. Purcell (NIH) and the sequences are published in Genbank (AAB67036, see Yanagi, M., Purcell, R. H., Emerson, S. U. and Bukh, J. Proc. Natl. Acad. Sci. U.S.A. 94(16), 8738-8743 (1997); AF054247, see Yanagi, M., St Claire, M., Shapiro, M., Emerson, S. U., Purcell, R. H. and Bukh, J, Virology 244 (1), 161-172. (1998)).
NS3/4A protease complex-containing fractions were pooled and loaded on a desalting column Superdex-S200 pre-equilibrated with buffer D (25 mM HEPES, pH 7.5, 20% glycerol, 300 mM NaCl, 0.2% Triton X-100, 10 mM βME). Sample was loaded at a flow rate of 1 mL/min. NS3/4A protease complex-containing fractions were pooled and concentrated to approximately 0.5 mg/ml. The purity of the NS3/4A protease complexes, derived from the BMS, H77 and J4L6S strains, were judged to be greater than 90% by SDS-PAGE and mass spectrometry analyses. The enzyme was stored at −80° C., thawed on ice and diluted prior to use in assay buffer.
The purpose of this in vitro assay was to measure the inhibition of HCV NS3 protease complexes, derived from the BMS strain, H77 strain or J4L6S strain, as described above, by compounds of the present disclosure. This assay provides an indication of how effective compounds of the present disclosure would be in inhibiting HCV NS3 proteolytic activity.
In order to monitor HCV NS3/4A protease activity, an NS3/4A peptide substrate was used. The substrate was RET S1 (Resonance Energy Transfer Depsipeptide Substrate; AnaSpec, Inc. cat #22991)(FRET peptide), described by Taliani et al. in Anal. Biochem. 240(2):60-67 (1996). The sequence of this peptide is loosely based on the NS4A/NS4B natural cleavage site for the HCV NS3 protease except there is an ester linkage rather than an amide bond at the cleavage site. The peptide also contains a fluorescence donor, EDANS, near one end of the peptide and an acceptor, DABCYL, near the other end. The fluorescence of the peptide is quenched by […] resonance energy transfer (RET) between the donor and the acceptor, but as the NS3 protease cleaves the peptide the products are released from RET quenching and the fluorescence of the donor becomes apparent.
The peptide substrate was incubated with one of the three recombinant NS3/4A protease complexes, in the absence or presence of a compound of the present disclosure. The inhibitory effects of a compound were determined by monitoring the formation of fluorescent reaction product in real time using a Cytofluor Series 4000.
Assay buffer: 50 mM HEPES, pH 7.5; 0.15 M NaCl; 0.1% Triton; 15% Glycerol; 10 mM βME. Substrate: 2 μM final concentration (from a 2 mM stock solution in DMSO stored at −20° C.). HCV NS3/4A protease type 1a (1b), 2-3 nM final concentration (from a 5 μM stock solution in 25 mM HEPES, pH 7.5, 20% glycerol, 300 mM NaCl, 0.2% Triton-X100, 10 mM βME). […]

Work on `C=C[C@@H]1C[C@]1(NC(=O)[C@@H]1C[C@@H](OC(=O)c2ccccc2)CN1C(=O)[C@@H](NC(=O)OC(C)(C)C)C(C)(C)C)C(=O)NS(=O)(=O)C1CC1` [Compound 1] yielded a pIC50 (read-out: Activity Range (IC50), NS3/4A BMS strain) of 7.30 to 9.00 and a pIC50 (read-out: IC50 against the NS3/4A BMS strain in the enzyme assay, BMS strain) of 7.89.
